pIC50: −log10 of the molar value. Like-named read-outs stand apart in the source and are kept apart here.
What was measured:
UT-B = biological target: T1, UT-B (Mus musculus, UniProt Q8VHL0); experiment: Erythrocyte lysis assay of UT-B inhibition; format: cell-based; parameters: Screening was performed using mouse erythrocytes, which strongly express UT-B; endogenous in cells; host or cells: erythrocytes in whole blood of wild-type CD1 mice; conditions: read-out: IC50
T1 sequence (Q8VHL0 1-384): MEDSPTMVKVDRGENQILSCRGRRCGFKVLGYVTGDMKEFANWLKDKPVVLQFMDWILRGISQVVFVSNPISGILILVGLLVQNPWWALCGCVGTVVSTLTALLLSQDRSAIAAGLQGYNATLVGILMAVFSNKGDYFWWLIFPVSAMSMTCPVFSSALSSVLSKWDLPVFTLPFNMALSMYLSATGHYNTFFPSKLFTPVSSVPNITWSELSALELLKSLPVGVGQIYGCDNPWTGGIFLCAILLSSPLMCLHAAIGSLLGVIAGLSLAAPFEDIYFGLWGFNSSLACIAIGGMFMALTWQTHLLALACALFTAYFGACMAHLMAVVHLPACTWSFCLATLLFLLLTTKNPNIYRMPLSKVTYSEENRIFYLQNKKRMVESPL
Experimental: Screening was performed using mouse erythrocytes, which strongly express UT-B and are highly water permeable because the cells also express aquaporin-1 (AQP1) water channels. The screening method involved assay of erythrocyte lysis in response to a large, outwardly directed gradient of acetamide, a urea analog that is transported efficiently by UT-B. A large, outwardly directed gradient of acetamide causes transient cell swelling, but little cell lysis, because UT-B-facilitated acetamide efflux limits water influx (see FIG. 1A). UT-B inhibition prevents acetamide efflux, allowing unopposed cell swelling and consequent cell lysis, which was recorded by reduced near-infrared light absorption at 710 nm.
Primary screening was done using a collection of 100,000 diverse, drug-like compounds from commercial sources (ChemDiv, San Diego, Calif.; Asinex, Winston-Salem, N.C.). […] Vigorous mixing was achieved by repeated pipetting. Erythrocyte lysis was quantified by absorbance at 710 nm wavelength, made within 5 min after hypo-osmolar shock. […] For analysis of structure-activity relationships >900 commercially available analogs (ChemDiv and Asinex) were tested.

[1] = In vitro metabolic stability in hepatic microsomes; format: in vitro ADME, rat; conditions: for % Remaining after 10 min incubation with liver microsomes: NADPH, compound 5 μM; for % Remaining: parent molecule after 30 min incubation with rat liver microsomes; for metabolic stability (in words): hepatic microsomes
Experimental: Compounds, each at 5 μM, were incubated for specified times at 37° C. with rat liver microsomes (1 mg protein/ml; Sigma-Aldrich, St. Louis, Mo.) in potassium phosphate buffer (100 mM) containing 1 mM NADPH. The mixture was then chilled on ice, and 0.5 ml of ice-cold ethyl acetate was added.

[2] = Table 1, commercially available analogues, erythrocyte lysis assay
[3] = Table 2, synthesized inhibitors, red blood cell lysis assay (n = 3), single-site saturation model

| pIC50 (UT-B; [2]) | % Remaining after 10 min incubation with liver microsomes [1] [%] | Structure (SMILES) | pIC50 (UT-B; [3]) | % Remaining [1] [%] | metabolic stability (in words) [1] | pIC50 (UT-B; erythrocyte lysis assay) |
| --- | --- | --- | --- | --- | --- | --- |
| 6.06 | 57 | CCCCNc1nc2c(S(=O)(=O)c3cc(C)ccc3C)nnn2c2ccsc12 [Compound 2cn] | – | – | – | – |
| – | – | COc1ccc(S(=O)(=O)c2nnn3c2nc(NCc2cccs2)c2sccc23)cc1 [Compound 3f, [3-(4-Methoxy-benzenesulfonyl)-thieno[2,3-e][1,2,3]triazolo[1,5-a]pyrimidin-5-yl]-thiophen-2-ylmethyl-amine] | 6.98 | 6 | – | – |
| – | – | CC(C)c1ccc(S(=O)(=O)c2nnn3c2nc(NCc2cccc4ccccc24)c2sccc23)cc1 [Compound 3j, [3-(4-Isopropyl-benzenesulfonyl)-thieno[2,3-e][1,2,3]triazolo[1,5-a]pyrimidin-5-yl]-naphthalen-1-ylmethyl-amine] | < 5.60 | 45 | – | – |
| 5.78 | 80 | COc1ccc(CNc2nc3c(S(=O)(=O)c4ccc(C)cc4)nnn3c3ccsc23)cc1 [Compound 2ad, [3-(4-methyl-benzenesulfonyl)-thieno[2,3-e][1,2,3]triazolo[1,5-a]pyrimidin-5-yl]-(4-methoxy-benzyl)-amine] | – | – | improved metabolic stability | – |
| 5.75 | 6 | CCc1ccc(S(=O)(=O)c2nnn3c2nc(N(CC)CC)c2sccc23)cc1 [Compound 2bs] | – | – | – | – |
| – | – | COc1ccc(CNc2nc3c(S(=O)(=O)c4ccc(C(C)C)cc4)nnn3c3ccsc23)cc1 [Compound 3e, [3-(4-Isopropyl-benzenesulfonyl)-thieno[2,3-e][1,2,3]triazolo[1,5-a]pyrimidin-5-yl]-(4-methoxy-benzyl)-amine] | 5.28 | 7 | – | – |
| 6.36 | <2 | CCc1ccc(S(=O)(=O)c2nnn3c2nc(NCCCOC(C)C)c2sccc23)cc1 [Compound 2cf, {3-[4-ethyl-benzenesulfonyl]-thieno[2,3-e][1,2,3]triazolo[1,5-a]pyrimidin-5-yl}-3-(1-methylethoxyl)propyl-amine] | – | – | – | – |
| 5.72 | 76 | CCCCNc1nc2c(S(=O)(=O)c3ccc(Br)cc3)nnn2c2ccsc12 [Compound 2cu] | – | – | – | – |
| – | – | O=S(=O)(c1ccc(F)cc1)c1nnn2c1nc(NCc1cccs1)c1sccc12 [Compound 3h, [3-(4-Fluoro-benzenesulfonyl)-thieno[2,3-e][1,2,3]triazolo[1,5-a]pyrimidin-5-yl]-thiophen-2-ylmethyl-amine] | 6.33 | 27 | – | – |
| 5.98 | 15 | COc1ccccc1CNc1nc2c(S(=O)(=O)c3ccc(C)c(C)c3)nnn2c2ccsc12 [Compound 2as, [3-(3,4-dimethyl-benzenesulfonyl)-thieno[2,3-e][1,2,3]triazolo[1,5-a]pyrimidin-5-yl]-(2-methoxy-benzyl)-amine] | – | – | – | – |
| 6.67 | 52 | O=S(=O)(c1ccc(Cl)cc1)c1nnn2c1nc(NCc1cccs1)c1sccc12 [Compound 2bi, {3-[4-chloro-benzenesulfonyl]-thieno[2,3-e][1,2,3]triazolo[1,5-a]pyrimidin-5-yl}-thiophen-2-ylmethyl-amine] | – | – | – | – |
| 5.81 | 12 | COc1ccc(CNc2nc3c(S(=O)(=O)c4ccc(C)c(C)c4)nnn3c3ccsc23)cc1 [Compound 2at, [3-(3,4-dimethyl-benzenesulfonyl)-thieno[2,3-e][1,2,3]triazolo[1,5-a]pyrimidin-5-yl]-(4-methoxy-benzyl)-amine] | – | – | – | – |
| 5.72 | 63 | COCCNc1nc2c(S(=O)(=O)c3ccc(Cl)cc3)nnn2c2ccsc12 [Compound 2bh, {3-[4-chloro-benzenesulfonyl]-thieno[2,3-e][1,2,3]triazolo[1,5-a]pyrimidin-5-yl}-2-methoxyethyl-amine] | – | – | – | – |
| 6.43 | 81 | CCc1ccc(S(=O)(=O)c2nnn3c2nc(NCc2ccc(Cl)cc2)c2sccc23)cc1 [Compound 2bt, [3-(4-ethyl-benzenesulfonyl)-thieno[2,3-e][1,2,3]triazolo[1,5-a]pyrimidin-5-yl]-(4-chloro-benzyl)-amine] | – | – | improved metabolic stability | – |
| – | – | O=S(=O)(c1ccc(C(F)(F)F)cc1)c1nnn2c1nc(NCc1cccs1)c1sccc12 [Compound 3c, Thiophen-2-ylmethyl-[3-(4-trifluoromethyl-benzenesulfonyl)-thieno[2,3-e][1,2,3]triazolo[1,5-a]pyrimidin-5-yl]-amine] | 6.27 | 99 | improved metabolic stability | – |
| 6.72 | <2 | CCCCNc1nc2c(S(=O)(=O)c3ccc(C(C)C)cc3)nnn2c2ccsc12 [Compound 2bm] | – | – | – | – |
| 6.15 | 14 | COCCNc1nc2c(S(=O)(=O)c3ccc(C(C)C)cc3)nnn2c2ccsc12 [Compound 2bo, {3-[4-isopropyl-benzenesulfonyl]-thieno[2,3-e][1,2,3]triazolo[1,5-a]pyrimidin-5-yl}-2-methoxyethyl-amine] | – | – | – | – |
| 6.02 | 53 | COCCNc1nc2c(S(=O)(=O)c3ccc(Br)cc3)nnn2c2ccsc12 [Compound 2ct] | – | – | – | – |
| 6.00 | 3 | Cc1ccc(S(=O)(=O)c2nnn3c2nc(NCc2ccccc2)c2sccc23)cc1C [Compound 2ao, [3-(3,4-dimethyl-benzenesulfonyl)-thieno[2,3-e][1,2,3]triazolo[1,5-a]pyrimidin-5-yl]-benzyl-amine] | – | – | – | – |
| 6.05 | 26 | CCc1ccc(S(=O)(=O)c2nnn3c2nc(NCC2CCCO2)c2sccc23)cc1 (stereo not drawn) [Compound 2bu, tetrahydrofuran-2-ylmethyl-[3-(4-ethyl-benzenesulfonyl)-thieno[2,3-e][1,2,3]triazolo[1,5-a]pyrimidin-5-yl]-amine] | – | – | – | – |
| 5.90 | 74 | CCCCNc1nc2c(S(=O)(=O)c3ccc(Cl)cc3)nnn2c2ccsc12 [Compound 2bg] | – | – | – | – |
| 5.73 | 21 | O=S(=O)(c1ccc(Cl)cc1)c1nnn2c1nc(NCc1ccco1)c1sccc12 [Compound 2bf, furan-2-ylmethyl-[3-(4-chloro-benzenesulfonyl)-thieno[2,3-e][1,2,3]triazolo[1,5-a]pyrimidin-5-yl]-amine] | – | – | – | – |
| 5.83 | 2 | CCc1ccc(S(=O)(=O)c2nnn3c2nc(NCCCN2CCCC2=O)c2sccc23)cc1 [Compound 2cg] | – | – | – | – |
| 6.81 | <2 | Cc1ccc(S(=O)(=O)c2nnn3c2nc(NCc2ccco2)c2sccc23)cc1C [Compound 2am, furan-2-ylmethyl-[3-(3,4-dimethyl-benzenesulfonyl)-thieno[2,3-e][1,2,3]triazolo[1,5-a]pyrimidin-5-yl]-amine] | – | – | – | – |
| – | – | O=S(=O)(c1ccc(Br)cc1)c1nnn2c1nc(NCc1cccs1)c1sccc12 [Compound 3i, [3-(4-Bromo-benzenesulfonyl)-thieno[2,3-e][1,2,3]triazolo[1,5-a]pyrimidin-5-yl]-thiophen-2-ylmethyl-amine] | 7.49 | 60 | improved metabolic stability | – |
| 6.18 | 59 | CCc1ccc(S(=O)(=O)c2nnn3c2nc(NCCC(C)C)c2sccc23)cc1 [Compound 2bv] | – | – | – | – |
| 6.07 | 35 | Cc1ccc(S(=O)(=O)c2nnn3c2nc(NCCC(C)C)c2sccc23)cc1C [Compound 2au] | – | – | – | – |
| 6.02 | 4 | CCc1ccc(S(=O)(=O)c2nnn3c2nc(NC(C)C)c2sccc23)cc1 [Compound 2ce] | – | – | – | – |
| 6.15 | – | Cc1ccc(C)c(S(=O)(=O)c2nnn3c2nc(NC(C)c2ccccc2)c2sccc23)c1 (stereo not drawn) [Compound 2cm, [3-(2,5-dimethyl-benzenesulfonyl)-thieno[2,3-e][1,2,3]triazolo[1,5-a]pyrimidin-5-yl]-(1-phenyl-1-methyl)methyl-amine] | – | – | – | – |

| Structure (SMILES) | pIC50 (UT-B; [2]) | % Remaining after 10 min incubation with liver microsomes [1] [%] | pIC50 (UT-B; [3]) | % Remaining [1] [%] | metabolic stability (in words) [1] | pIC50 (UT-B; erythrocyte lysis assay) |
| --- | --- | --- | --- | --- | --- | --- |
| CCc1ccc(S(=O)(=O)c2nnn3c2nc(NCCCOC)c2sccc23)cc1 [Compound 2cb, {3-[4-ethyl-benzenesulfonyl]-thieno[2,3-e][1,2,3]triazolo[1,5-a]pyrimidin-5-yl}-3-methoxypropyl-amine] | – | <2 | – | – | – | 6.67 |

Reference: US9303042B2, “Triazolothienopyrimidine compound inhibitors of urea transporters and methods of using inhibitors” (The Regents of the University of California, priority 2012, dated 2016)
